Activity calls are given as the source filed them. The calls are words filed in the database; no cut-off is given here.
Columns and labels:
[1] = target: T1, Toll-like receptor 7 (Mus musculus) (UniProt P58681); experiment: (§1) Agonist activity at mouse TLR7
T1 sequence (whole entry): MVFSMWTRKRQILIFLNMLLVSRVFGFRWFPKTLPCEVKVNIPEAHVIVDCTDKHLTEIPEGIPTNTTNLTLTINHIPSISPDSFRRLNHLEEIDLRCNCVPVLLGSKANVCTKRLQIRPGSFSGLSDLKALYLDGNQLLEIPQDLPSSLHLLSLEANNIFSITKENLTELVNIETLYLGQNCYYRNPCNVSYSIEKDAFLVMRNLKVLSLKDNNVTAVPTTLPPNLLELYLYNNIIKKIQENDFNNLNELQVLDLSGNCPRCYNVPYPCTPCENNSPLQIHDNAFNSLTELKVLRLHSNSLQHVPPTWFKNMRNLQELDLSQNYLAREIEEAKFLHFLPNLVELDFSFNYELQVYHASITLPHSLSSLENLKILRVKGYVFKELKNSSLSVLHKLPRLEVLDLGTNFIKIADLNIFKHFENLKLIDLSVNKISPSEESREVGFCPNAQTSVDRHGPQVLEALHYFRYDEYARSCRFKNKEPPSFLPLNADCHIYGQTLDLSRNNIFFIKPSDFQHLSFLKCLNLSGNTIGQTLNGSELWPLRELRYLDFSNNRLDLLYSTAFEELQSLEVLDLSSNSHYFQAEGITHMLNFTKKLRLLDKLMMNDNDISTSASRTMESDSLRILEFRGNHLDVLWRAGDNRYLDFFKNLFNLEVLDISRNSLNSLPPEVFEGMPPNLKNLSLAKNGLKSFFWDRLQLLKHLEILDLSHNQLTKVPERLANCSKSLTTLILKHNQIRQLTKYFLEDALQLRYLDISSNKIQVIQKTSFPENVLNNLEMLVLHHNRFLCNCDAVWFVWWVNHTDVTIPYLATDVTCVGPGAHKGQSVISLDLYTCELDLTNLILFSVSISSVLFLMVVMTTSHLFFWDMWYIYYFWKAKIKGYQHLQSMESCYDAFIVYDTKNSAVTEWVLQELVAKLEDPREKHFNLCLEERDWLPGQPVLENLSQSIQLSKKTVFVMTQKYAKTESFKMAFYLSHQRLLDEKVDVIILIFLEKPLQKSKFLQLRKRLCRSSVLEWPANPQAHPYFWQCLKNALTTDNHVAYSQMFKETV

Cytochrome P450 3A4 [2] = target: T2, Cytochrome P450 3A4 (Homo sapiens, UniProt P08684); experiment: Inhibition of CYP3A4 (unknown origin) using BFC as substrate preincubated with compound followed by substrate addition at 30 mins; type: ADME
T2 sequence (P08684 whole entry): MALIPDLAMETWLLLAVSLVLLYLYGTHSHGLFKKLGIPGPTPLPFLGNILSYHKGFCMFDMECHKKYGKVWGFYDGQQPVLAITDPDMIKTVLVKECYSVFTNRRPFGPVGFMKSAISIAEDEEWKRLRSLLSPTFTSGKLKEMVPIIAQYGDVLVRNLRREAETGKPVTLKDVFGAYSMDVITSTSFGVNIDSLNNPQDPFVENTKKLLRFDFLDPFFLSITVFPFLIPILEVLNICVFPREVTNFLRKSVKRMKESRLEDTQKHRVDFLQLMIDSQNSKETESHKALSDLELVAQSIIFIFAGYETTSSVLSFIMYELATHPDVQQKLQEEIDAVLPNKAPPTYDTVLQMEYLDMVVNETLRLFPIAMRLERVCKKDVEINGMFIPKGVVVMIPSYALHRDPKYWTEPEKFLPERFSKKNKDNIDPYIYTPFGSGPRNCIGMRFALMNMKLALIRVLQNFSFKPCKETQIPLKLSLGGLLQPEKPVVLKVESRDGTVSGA

Cytochrome P450 2C9 = Cytochrome P450 2C9 (Homo sapiens, UniProt P11712); experiment: Inhibition of CYP2C9 (unknown origin); type: ADME
Chain of Cytochrome P450 2C9 (P11712 whole entry): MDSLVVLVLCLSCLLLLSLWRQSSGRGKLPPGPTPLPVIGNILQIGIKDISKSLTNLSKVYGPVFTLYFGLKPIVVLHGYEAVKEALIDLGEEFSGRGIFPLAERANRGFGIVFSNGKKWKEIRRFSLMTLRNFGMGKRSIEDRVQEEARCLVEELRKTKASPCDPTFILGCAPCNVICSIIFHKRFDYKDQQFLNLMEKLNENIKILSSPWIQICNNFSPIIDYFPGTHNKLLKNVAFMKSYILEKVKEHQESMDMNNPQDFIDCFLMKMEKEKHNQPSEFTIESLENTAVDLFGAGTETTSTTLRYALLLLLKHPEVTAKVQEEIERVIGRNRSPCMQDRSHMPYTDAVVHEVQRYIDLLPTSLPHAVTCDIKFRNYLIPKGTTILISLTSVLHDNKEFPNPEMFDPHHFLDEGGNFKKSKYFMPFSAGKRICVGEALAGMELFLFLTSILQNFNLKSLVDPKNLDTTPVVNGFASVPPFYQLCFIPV

[3] = Cytotoxicity against PHA-activated T-cells (unknown origin) assessed as inhibition of IL-2 induced cell proliferation measured after 72 hrs by MTS assay; type: toxicity, cell-based
Cytochrome P450 3A4 [4] = target: T2, Cytochrome P450 3A4; experiment: Inhibition of CYP3A4 (unknown origin) using BFC as substrate preincubated with compound followed by substrate addition at 5 mins; type: ADME
Cytochrome P450 3A4 [5] = target: T2, Cytochrome P450 3A4; experiment: Inhibition of CYP3A4 (unknown origin) using BFC as substrate; type: ADME
[6] = target: Voltage-gated inwardly rectifying potassium channel KCNH2 (Homo sapiens, UniProt Q12809); experiment: Inhibition of hERG; type: toxicity; conditions: for inhibition (INH): human
Chain of Voltage-gated inwardly rectifying potassium channel KCNH2 (Q12809 whole entry): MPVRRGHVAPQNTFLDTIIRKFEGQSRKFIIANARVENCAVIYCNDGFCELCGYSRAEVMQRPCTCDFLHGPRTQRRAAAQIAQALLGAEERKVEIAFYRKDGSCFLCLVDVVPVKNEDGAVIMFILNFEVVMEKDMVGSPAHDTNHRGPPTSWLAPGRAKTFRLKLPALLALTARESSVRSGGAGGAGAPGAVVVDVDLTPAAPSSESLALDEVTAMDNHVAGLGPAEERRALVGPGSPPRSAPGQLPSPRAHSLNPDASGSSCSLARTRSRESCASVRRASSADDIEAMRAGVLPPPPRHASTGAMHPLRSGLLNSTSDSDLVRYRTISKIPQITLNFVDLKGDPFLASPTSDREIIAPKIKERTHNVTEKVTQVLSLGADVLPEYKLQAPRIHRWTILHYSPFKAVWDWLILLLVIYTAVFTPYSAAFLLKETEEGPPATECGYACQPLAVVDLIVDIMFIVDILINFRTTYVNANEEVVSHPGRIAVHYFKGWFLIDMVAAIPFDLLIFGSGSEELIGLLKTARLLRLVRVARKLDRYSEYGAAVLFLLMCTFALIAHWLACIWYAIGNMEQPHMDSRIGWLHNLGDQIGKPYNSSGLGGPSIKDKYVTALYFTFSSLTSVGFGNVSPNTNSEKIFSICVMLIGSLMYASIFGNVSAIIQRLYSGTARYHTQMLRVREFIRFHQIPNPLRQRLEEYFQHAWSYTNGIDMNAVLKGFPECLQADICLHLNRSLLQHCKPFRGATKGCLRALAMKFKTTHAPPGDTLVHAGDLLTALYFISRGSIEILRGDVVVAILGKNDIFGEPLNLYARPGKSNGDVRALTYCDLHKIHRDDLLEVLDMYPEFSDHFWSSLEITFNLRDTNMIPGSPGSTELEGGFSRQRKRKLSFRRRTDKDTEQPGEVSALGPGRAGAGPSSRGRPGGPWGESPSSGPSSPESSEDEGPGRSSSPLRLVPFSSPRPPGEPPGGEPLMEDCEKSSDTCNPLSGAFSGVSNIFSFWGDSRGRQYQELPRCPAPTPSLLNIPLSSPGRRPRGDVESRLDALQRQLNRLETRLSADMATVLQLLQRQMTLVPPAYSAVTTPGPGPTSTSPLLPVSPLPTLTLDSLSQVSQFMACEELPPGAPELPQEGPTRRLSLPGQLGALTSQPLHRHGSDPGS

Cytochrome P450 2C8 = target: T3, Cytochrome P450 2C8 (Homo sapiens, UniProt P10632); experiment: Inhibition of CYP2C8 (unknown origin); type: ADME
T3 sequence (P10632 whole entry): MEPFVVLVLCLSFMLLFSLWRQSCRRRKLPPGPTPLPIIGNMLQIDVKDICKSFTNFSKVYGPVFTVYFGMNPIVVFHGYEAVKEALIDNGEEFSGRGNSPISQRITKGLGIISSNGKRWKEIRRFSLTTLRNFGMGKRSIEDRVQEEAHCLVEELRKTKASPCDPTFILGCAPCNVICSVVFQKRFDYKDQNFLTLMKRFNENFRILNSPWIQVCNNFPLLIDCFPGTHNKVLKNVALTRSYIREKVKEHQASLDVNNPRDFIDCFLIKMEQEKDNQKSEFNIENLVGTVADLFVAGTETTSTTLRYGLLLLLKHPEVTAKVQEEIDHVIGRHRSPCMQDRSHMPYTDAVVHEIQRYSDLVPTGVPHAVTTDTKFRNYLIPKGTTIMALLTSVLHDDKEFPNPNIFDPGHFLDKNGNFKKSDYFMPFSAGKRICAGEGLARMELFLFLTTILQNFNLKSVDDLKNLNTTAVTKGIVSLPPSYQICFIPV

Cytochrome P450 1A2 = target: T4, Cytochrome P450 1A2 (Homo sapiens, UniProt P05177); experiment: Inhibition of CYP1A2 (unknown origin); type: ADME
T4 sequence (P05177 whole entry): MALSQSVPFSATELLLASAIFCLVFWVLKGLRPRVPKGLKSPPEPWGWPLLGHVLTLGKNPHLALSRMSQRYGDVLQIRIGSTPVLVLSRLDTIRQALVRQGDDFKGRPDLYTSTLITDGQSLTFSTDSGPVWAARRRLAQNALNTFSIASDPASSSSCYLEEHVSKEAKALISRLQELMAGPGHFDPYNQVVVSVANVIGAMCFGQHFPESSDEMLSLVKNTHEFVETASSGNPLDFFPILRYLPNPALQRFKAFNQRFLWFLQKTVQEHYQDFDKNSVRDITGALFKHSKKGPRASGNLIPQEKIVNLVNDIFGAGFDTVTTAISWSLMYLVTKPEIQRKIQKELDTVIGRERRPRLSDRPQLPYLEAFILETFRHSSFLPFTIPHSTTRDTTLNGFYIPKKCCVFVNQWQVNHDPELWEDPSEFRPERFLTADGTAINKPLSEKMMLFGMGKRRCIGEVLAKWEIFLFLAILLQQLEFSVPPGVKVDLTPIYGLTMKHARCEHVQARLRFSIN

Cytochrome P450 2D6 = Cytochrome P450 2D6 (Homo sapiens, UniProt P10635); experiment: Inhibition of CYP2D6 (unknown origin); type: ADME
Chain of Cytochrome P450 2D6 (P10635 whole entry): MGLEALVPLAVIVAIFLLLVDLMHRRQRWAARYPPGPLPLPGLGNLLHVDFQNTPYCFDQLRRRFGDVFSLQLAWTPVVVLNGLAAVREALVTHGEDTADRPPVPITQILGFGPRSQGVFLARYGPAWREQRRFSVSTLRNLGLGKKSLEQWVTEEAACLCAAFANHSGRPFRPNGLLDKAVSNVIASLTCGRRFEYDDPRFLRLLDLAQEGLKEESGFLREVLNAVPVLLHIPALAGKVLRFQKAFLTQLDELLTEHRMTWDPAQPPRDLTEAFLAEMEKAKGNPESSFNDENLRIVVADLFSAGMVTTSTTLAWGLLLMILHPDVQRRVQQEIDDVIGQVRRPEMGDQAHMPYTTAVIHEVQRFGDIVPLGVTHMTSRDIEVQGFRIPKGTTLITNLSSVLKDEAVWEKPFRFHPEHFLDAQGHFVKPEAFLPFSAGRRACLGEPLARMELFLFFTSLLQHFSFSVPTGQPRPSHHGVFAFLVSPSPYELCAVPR

Cytochrome P450 2C19 = Cytochrome P450 2C19 (Homo sapiens, UniProt P33261); experiment: Inhibition of CYP2C19 (unknown origin); type: ADME
Chain of Cytochrome P450 2C19 (P33261 whole entry): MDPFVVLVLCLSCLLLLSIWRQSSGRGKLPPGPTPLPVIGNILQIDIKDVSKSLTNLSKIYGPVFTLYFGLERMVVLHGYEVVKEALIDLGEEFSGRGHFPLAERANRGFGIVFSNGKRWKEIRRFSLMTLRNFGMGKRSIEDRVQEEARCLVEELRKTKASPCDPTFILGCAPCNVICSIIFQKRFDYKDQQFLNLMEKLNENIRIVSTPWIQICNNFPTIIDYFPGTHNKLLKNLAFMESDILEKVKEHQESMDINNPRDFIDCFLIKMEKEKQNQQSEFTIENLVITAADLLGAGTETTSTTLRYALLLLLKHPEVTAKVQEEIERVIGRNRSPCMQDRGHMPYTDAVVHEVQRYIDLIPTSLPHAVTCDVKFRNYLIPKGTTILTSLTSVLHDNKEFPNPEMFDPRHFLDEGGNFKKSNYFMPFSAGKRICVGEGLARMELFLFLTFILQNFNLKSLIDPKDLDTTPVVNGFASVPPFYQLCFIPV

[7] = Metabolic stability in mouse liver microsomes assessed as compound remaining at 0.5 uM incubated for 10 mins in presence of NADPH by UV absorbance based assay; type: ADME, Microsome; conditions: read-out: Stability
[8] = Metabolic stability in human liver microsomes assessed as compound remaining at 0.5 uM incubated for 10 mins in presence of NADPH by UV absorbance based assay; type: ADME, Microsome; conditions: read-out: Stability
Toll-like receptor 7 [9] = target: T5, Toll-like receptor 7 (Homo sapiens, UniProt Q9NYK1); experiment: Agonist activity at human TLR7 in HEK-Blue hTLR7 cells harboring SEAP reporter transgene incubated for 18 hrs by quanti-blue reagent based assay; type: cell-based
T5 sequence (Q9NYK1 whole entry): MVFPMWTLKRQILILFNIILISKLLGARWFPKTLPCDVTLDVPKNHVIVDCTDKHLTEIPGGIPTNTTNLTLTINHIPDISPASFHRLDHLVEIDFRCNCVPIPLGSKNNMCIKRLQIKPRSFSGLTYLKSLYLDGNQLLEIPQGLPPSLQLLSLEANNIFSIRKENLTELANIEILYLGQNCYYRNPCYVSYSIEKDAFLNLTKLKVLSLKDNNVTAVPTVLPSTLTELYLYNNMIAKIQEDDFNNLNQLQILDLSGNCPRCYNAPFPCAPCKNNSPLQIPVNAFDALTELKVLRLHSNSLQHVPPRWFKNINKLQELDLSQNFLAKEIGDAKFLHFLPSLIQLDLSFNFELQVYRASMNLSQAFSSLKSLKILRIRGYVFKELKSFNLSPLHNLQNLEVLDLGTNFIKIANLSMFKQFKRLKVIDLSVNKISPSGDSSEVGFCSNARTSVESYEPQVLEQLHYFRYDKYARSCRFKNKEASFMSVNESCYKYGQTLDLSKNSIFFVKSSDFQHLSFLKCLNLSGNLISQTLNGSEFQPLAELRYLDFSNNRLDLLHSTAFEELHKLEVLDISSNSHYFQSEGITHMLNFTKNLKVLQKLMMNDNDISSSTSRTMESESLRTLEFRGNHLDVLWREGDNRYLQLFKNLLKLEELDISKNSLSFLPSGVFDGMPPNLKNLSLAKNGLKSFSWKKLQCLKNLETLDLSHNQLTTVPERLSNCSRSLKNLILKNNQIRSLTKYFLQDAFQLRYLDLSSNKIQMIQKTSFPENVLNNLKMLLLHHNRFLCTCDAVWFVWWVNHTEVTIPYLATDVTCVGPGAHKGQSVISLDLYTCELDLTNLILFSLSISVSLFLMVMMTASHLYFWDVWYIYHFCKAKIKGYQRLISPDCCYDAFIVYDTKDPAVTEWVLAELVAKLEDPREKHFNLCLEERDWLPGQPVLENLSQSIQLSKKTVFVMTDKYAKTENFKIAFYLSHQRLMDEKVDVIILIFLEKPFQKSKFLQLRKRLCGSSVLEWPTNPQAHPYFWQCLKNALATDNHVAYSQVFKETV

Toll-like receptor 7 [10] = target: T6, Toll-like receptor 7 (Mus musculus, UniProt P58681); experiment: as §1
T6 sequence (P58681 whole entry): T1 sequence (whole entry)

SMILES | Activity [1] | IC50 (Cytochrome P450 3A4 [2]) | IC50 (Cytochrome P450 2C9) | IC50 (Cytochrome P450 3A4 [4]) | IC50 (Cytochrome P450 3A4 [5]) | IC50 (Cytochrome P450 2C8) | IC50 (Cytochrome P450 1A2) | IC50 (Cytochrome P450 2D6) | IC50 (Cytochrome P450 2C19) | remaining at 10 min, 0.5 µM [7] | remaining at 10 min, 0.5 µM [8] | EC50 (Toll-like receptor 7 [9]) | EC50 (Toll-like receptor 7 [10]) | IC50 at 72 h [3] | IC50 [6] | inhibition (INH) [6]
CCCCNc1nc(N)nc2cnn(Cc3ccc(N4CCNCC4)cc3OC)c12 | – | > 20 µM | > 20 µM | > 20 µM | > 20 µM | > 20 µM | > 20 µM | > 20 µM | > 20 µM | 5% | 100% | 0.78 µM | 1.95 µM | 20 µM | – | Not Active
CCCCNc1nc(N)nc2c(C3CC3)nn(Cc3ncc(C4CCNCC4)cc3OC)c12 | – | 10.1 µM | 17.6 µM | > 20 µM | 10.1 µM | > 20 µM | > 20 µM | > 20 µM | > 20 µM | 30% | 97% | 0.461 µM | > 5 µM | 20 µM | – | Not Active
CCC[C@@H](CCO)Nc1nc(N)nc2cnn(Cc3ncc(C4CC5(C4)CN(C4CCOCC4)C5)cc3OC)c12 | – | > 20 µM | > 20 µM | > 20 µM | > 20 µM | > 20 µM | > 20 µM | > 20 µM | > 20 µM | 66% | 77% | 0.37 µM | 0.148 µM | > 25 µM | > 50 µM | –
CCC[C@@H](CCO)Nc1nc(N)nc2cnn(Cc3ncc(C4CCN(CCO)CC4)cc3OC)c12 | – | > 20 µM | > 20 µM | > 20 µM | > 20 µM | > 20 µM | > 20 µM | > 20 µM | > 20 µM | 100% | 93% | 0.049 µM | 0.124 µM | > 25 µM | > 50 µM | –

Now from value to molecule, other results behind:

Activity [1] | IC50 (Cytochrome P450 3A4 [2]) | IC50 (Cytochrome P450 2C9) | IC50 (Cytochrome P450 3A4 [4]) | IC50 (Cytochrome P450 3A4 [5]) | IC50 (Cytochrome P450 2C8) | IC50 (Cytochrome P450 1A2) | IC50 (Cytochrome P450 2D6) | IC50 (Cytochrome P450 2C19) | remaining at 10 min, 0.5 µM [7] | remaining at 10 min, 0.5 µM [8] | EC50 (Toll-like receptor 7 [9]) | EC50 (Toll-like receptor 7 [10]) | SMILES | IC50 at 72 h [3] | IC50 [6] | inhibition (INH) [6]
inactive | > 20 µM | > 20 µM | > 20 µM | > 20 µM | > 20 µM | > 20 µM | > 20 µM | > 20 µM | 85% | 99% | – | – | CCC[C@@H](CCO)Nc1nc(N)nc2cnn(Cc3ncc(C4CCN(C5CCN(C)CC5)CC4)cc3OC)c12 | > 25 µM | > 50 µM | –
– | > 20 µM | > 20 µM | > 20 µM | > 20 µM | > 20 µM | > 20 µM | > 20 µM | > 20 µM | 47% | 74% | 0.572 µM | > 5 µM | CCCCNc1nc(N)nc2c(CC)nn(Cc3ncc(C4CCNCC4)cc3OC)c12 | > 25 µM | > 50 µM | –
– | > 14 µM | > 14 µM | > 14 µM | > 14 µM | > 14 µM | > 14 µM | > 14 µM | > 14 µM | 44% | 100% | 0.133 µM | 0.177 µM | CCC[C@@H](CCO)Nc1nc(N)nc2cnn(Cc3ncc(C4CCC5(CC4)CNC5)cc3OC)c12 | > 25 µM | 14 µM | –
– | > 20 µM | > 20 µM | > 20 µM | > 20 µM | > 20 µM | > 20 µM | > 20 µM | > 20 µM | 87% | 88% | 0.021 µM | 0.048 µM | CCC[C@@H](CCO)Nc1nc(N)nc2cnn(Cc3ncc(C4CCC5(CC4)CN(C(C)C)C5)cc3OC)c12 | > 25 µM | 13 µM | –
– | > 20 µM | > 20 µM | > 20 µM | > 20 µM | > 20 µM | > 20 µM | > 20 µM | > 20 µM | 97% | 100% | 0.084 µM | 0.984 µM | CCCCNc1nc(N)nc2cnn(Cc3ncc(C4CCNCC4)cc3OC)c12 | > 25 µM | 19 µM | –

From ChEMBL document CHEMBL5357082, “Identification and Optimization of Small Molecule Pyrazolopyrimidine TLR7 Agonists for Applications in Immuno-oncology” (ACS Med Chem Lett, 2024)
